Experimental data published in US20260009799A1, “CA-IX TARGETING FLUORESCENT PROBES” (BRACCO IMAGING S.P.A., priority 2022, published 2026).

Assays:
[1] = Optical characterization (excitation/emission maxima, molar extinction coefficient); type: physicochemical
Procedure: A dual-beam UV-VIS spectrophotometer (Lambda 40, Perkin Elmer) was used to determine the absorbance (Abs) of the compounds of the invention. Emission/excitation (Em/Ex) spectra were carried out on a spectrofluorometer (FluoroLog-3 1IHR-320, Horiba Jobin Yvon) equipped with an F-3018 integrating sphere accessory. The measurements were performed using an excitation wavelength at maximum absorbance of different dyes, and the sample was excited with a 450 W Xenon light Source. Detection was performed by photomultiplier tubes (PMT-NIR) cooled detector or by TBX-04 detector. Dye solutions were carefully prepared to have an absorbance lower than 0.1 (optical densities) to minimize re-absorption phenomena.
The compounds of the invention were characterized in terms of their optical properties in vitro in aqueous medium (i.e., water/PBS pH 7.4) and in a clinical chemistry control serum (Seronorm, Sero SA), mimicking the chemical composition and optical properties of human serum. All solutions were freshly prepared. In particular, the compounds of the invention are characterized by absorption maxima comprised in the range from about 750 nm to 780 nm.
The excitation and emission maxima in PBS and Seronorm and the molar extinction coefficient (ε) in water of representative compounds of formula (I) are shown in Table I in comparison with the known CA-IX targeting fluorescent probe named Hypoxyfluor-1 (HF-1, for instance disclosed in Bioconjugate Chem 2018, 29, 3320-3331). […] Moreover, the extinction coefficients were higher than 200,000 mM^−1 cm^−1 for all compounds.

[2] = target: T1, human serum albumin (HSA) (Homo sapiens, UniProt P02768); experiment: Binding to albumin (ultrafiltration, absorbance of filtrates); type: in vitro ADME; conditions: 4.76 μM probe in PBS, 10 KDa cut off ultrafiltration, 25° C.; read-out: HSA affinity (KA, M^−1) (converted)
T1 construct: purchased Sigma-Aldrich A9511
Procedure: The affinity of the probes for human serum albumin (HSA) was determined to assess the influence of structural features on their albumin binding properties. Briefly, HSA (A9511, Sigma-Aldrich) was prepared in a […] stock solution in PBS and used to obtain a series of dilutions in PBS (0, 9.52·10^−7, 4.76·10^−6, 9.52·10^−6, 1.90·10^−5, 3.81·10^−5, 5.71·10^−5, 9.52·10^−5, 1.43·10^−4, 1.90·10^−4, 2.86·10^−4, 3.81·10^−4 M), in presence of 4.76 μM of the CA-IX-targeting probe (prepared from a 50 μM stock solution in PBS), in a total volume of 0.525 mL. The samples were centrifuged (10000 g for 30 min at 25° C.) in a Microcon device (10 KDa MW cut off, Amicon Ultra-0.5 Centrifugal Filter Unit with Ultracel-10 membrane) and the absorbance measurements of the filtrates were obtained with the spectrophotometer at the maximum absorbance wavelength of the fluorophore.
Data analysis was performed by fitting the raw data, using Microsoft Excel Solver, with the equation:
where ΔA/b=Absorbance measured (b=1 cm), KRL=KA calculated by fitting, Δε·Rt are calculated by fitting, and [L]=HSA concentration. ΔA/b values were experimentally obtained by subtracting the absorbance of “0 HSA sample” to the absorbance of each other sample.

[3] = test system: hypoxic HT-29 colorectal tumor, subcutaneously induced; experiment: In vivo tumor optical imaging (IVIS Spectrum), tumor-to-background ratio; set-up: species or system mice; conditions: 24 hours after intravenous administration, 1 nmol/mouse, tumor vs hind limb muscle
Procedure: HT-29 cells were collected and washed once with serum-free medium. Five million HT-29 cells were suspended in 0.1 mL serum-free medium and injected subcutaneously in the right flank of 5 weeks old mice. Tumor development was followed by caliper measurement twice a week, from 7 days after inoculation. Tumor volume was calculated according to the formula: (L*W2)/2, where L and W are the maximum length and width of the tumor.
Optical Imaging experiments on HT-29 tumor bearing animals were performed after administration of Reference 1, 2 and 3, and compounds 1 and 2, all at a dose of 1 nmol/mouse in an administration volume of 0.1 mL (corresponding to about 5 mL/kg, considering a 20 g-mouse) at an injection rate of about 1 mL/min, by the IVIS Spectrum system when the tumor reached at least 200 mm^3 volume. For each group, in vivo OI experiments were performed at 0.5, 1, 2, 3, 4, 6 and 24 hours after intravenous administration of the fluorescent compounds. During imaging experiments animals were maintained under gaseous anesthesia. Regions of interest (ROIs) were drawn on the tumor and on a reference background healthy region (hind limb muscle) of the mouse for each fluorescence image at every time point to evaluate signal intensity in the tissues (expressed as Average Radiant Efficiency). The ratio between the fluorescence signal in the tumor and in the background healthy tissue (tumor-to-background ratio, TBR) was then calculated to assess the contrast.
All the compounds of the invention and the References were tested at a dose of 1 nmol/mouse.

[4] = test system: HT-29 excised tumors and tissues; experiment: Ex vivo biodistribution in excised tumors and organs; set-up: species or system mice; conditions: 1 nmol; for Organ-to-muscle ratio, intestine (mean ± SD) / Organ-to-muscle ratio, kidney (mean ± SD) / Organ-to-muscle ratio, liver (mean ± SD) / Organ-to-muscle ratio, skin (mean ± SD) / Organ-to-muscle ratio, spleen (mean ± SD) / Organ-to-muscle ratio, stomach (mean ± SD): ex vivo, 24 hours after administration; for ex vivo TBR (mean ± SD), HT-29 tumor: samples collected 24 hours after administration, tumor vs hind limb muscle
Procedure: The ex vivo biodistribution of the representative compounds 1 and 2 and of the reference compounds (at 1 nmol/mouse) was evaluated in HT-29 excised tumors and tissues at the end of the in vivo OI sessions 24 hours post intravenous administration. At the end of the in vivo experiment, animals were euthanized by overdose of gaseous anesthesia followed by cervical dislocation. Tumor tissue, muscle, and other organs of interest were removed for ex vivo fluorescent signal measurements. The fluorescence signal intensity was measured by the IVIS Spectrum system. Regions of interest (ROIs) were drawn around each organ and tumor using the Living Image Software (PerkinElmer) and evaluating signal intensity in the tissues (expressed as Average Radiant Efficiency). The ratio between the fluorescence signal in the organs and tumor was then calculated to assess the contrast to hind limb muscle (representing the background).

[5] = Optical characterization (excitation/emission maxima, molar extinction coefficient); type: physicochemical; conditions: in water
[6] = target: T2, CA-IX expressing HT-29 cells (Homo sapiens, UniProt Q16790); experiment: Cellular binding assessment by flow cytometry; conditions: HT-29 cells, 1 hour 30 min on ice, flow cytometry; read-out: CA-IX receptor affinity (KD, nM to HT-29 cells)
T2 construct: CA-IX, expressed in its physiological environment at the cell-surface; host or cells: HT-29 human colorectal adenocarcinoma cells
Procedure: Human colon adenocarcinoma HT-29 cells (ATCC) used for the cellular binding experiments were cultured in McCoy's 5A medium (Sigma-Aldrich), supplemented with 10% HyClone Fetal Clone III (Euroclone), 2 mM L-glutamine (Sigma-Aldrich), 100 IU/mL penicillin, 0.1 mg/mL streptomycin, 0.25 μg/mL amphotericin B (Antibiotic-Antimycotic solution, Life Technologies) and cells were grown at 37° C. in humidified atmosphere enriched with 5% CO2. DPBS without MgCl2 and CaCl2) (Sigma-Aldrich) was used for cell rinsing.
Indeed, by using the anti-human CA-IX antibody MAB2188 (R&D Systems) and the DAKO […], according to the instruction of the datasheet, HT-29 cells were estimated to express about 150,000 CA-IX molecules per cell. Thus, HT-29 cells were used to measure the binding of all compounds to CA-IX, expressed in its physiological environment at the cell-surface. Briefly, HT-29 cells were detached with StemPro® Accutase® Cell Dissociation Reagent (Life Technologies), collected in DPBS and counted. At least 2·10^5 HT-29 cells were placed in 1.5 mL tubes on ice and resuspended in 50-100 μL of cold FACS buffer (eBioscience™ Flow Cytometry Staining Buffer, Invitrogen) containing scalar concentrations of compounds (HF-1, reference 2, and compound 1: range 0-20 μM; reference 3: range 0-24 μM; compound 2: range 0-10 μM). After incubation (1 hour and 30 min on ice in the dark), cells were rinsed 3 times in 300 μL of cold FACS buffer by centrifugation (5 min, 4° C., 350 RCF), discarding the supernatant. Cell pellets were then resuspended in 200 μL of cold FACS buffer (or in an adequate volume in order to obtain no more than 1000 recorded events per μL during FACS analysis) and analyzed with the flow cytometer Accuri™ C6 (BD Biosciences). The mean cell-associated fluorescence was plotted against concentration and the dissociation constant at equilibrium (KD) was inferred by mathematical fitting with GraphPad Prism v.9 software, according to the following equation: […]
where Bmax is the maximum specific binding in the same units as Y; KD is the equilibrium dissociation constant, in the same units as X; NS is the slope of nonspecific binding in Y units divided by X units; and background is the amount of nonspecific binding with no added Compound.
All compounds were analyzed in at least three independent experiments.

[7] = target: recombinant bovine CA-II enzyme (bCAII) (Bos taurus, UniProt P00921); experiment: Fluorescence-based dansylamide (DNSA) displacement assay on carbonic anhydrase catalytic site
[8] = after injection into the patient; cited from earlier work

T1 sequence (P02768 25-609): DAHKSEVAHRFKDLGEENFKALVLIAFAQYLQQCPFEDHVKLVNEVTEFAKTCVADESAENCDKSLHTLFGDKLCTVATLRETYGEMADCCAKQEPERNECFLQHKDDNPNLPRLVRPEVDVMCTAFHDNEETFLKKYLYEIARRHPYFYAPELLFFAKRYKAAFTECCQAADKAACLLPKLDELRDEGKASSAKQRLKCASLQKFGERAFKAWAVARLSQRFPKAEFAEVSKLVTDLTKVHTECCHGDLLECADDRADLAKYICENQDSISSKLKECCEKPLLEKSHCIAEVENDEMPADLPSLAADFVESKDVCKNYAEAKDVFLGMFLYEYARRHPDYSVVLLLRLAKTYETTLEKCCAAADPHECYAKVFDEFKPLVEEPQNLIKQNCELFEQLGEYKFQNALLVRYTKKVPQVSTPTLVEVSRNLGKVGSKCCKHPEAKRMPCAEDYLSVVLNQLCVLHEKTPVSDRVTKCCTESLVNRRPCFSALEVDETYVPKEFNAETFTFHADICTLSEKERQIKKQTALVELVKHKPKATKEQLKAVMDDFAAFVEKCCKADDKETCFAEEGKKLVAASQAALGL
Chain of recombinant bovine CA-II enzyme (bCAII) (P00921 whole entry): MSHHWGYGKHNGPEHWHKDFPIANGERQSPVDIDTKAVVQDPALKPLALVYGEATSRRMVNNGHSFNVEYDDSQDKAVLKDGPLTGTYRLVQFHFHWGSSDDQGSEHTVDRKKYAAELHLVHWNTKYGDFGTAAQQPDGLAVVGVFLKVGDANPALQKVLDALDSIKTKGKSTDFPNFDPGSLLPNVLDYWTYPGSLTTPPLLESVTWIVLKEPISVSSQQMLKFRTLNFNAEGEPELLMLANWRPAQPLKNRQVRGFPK

Molecule | Max Em (nm, PBS pH 7.4) ([1]; emission maximum, PBS pH 7.4) | Max Em (nm, Seronorm) ([1]; emission maximum, Seronorm control serum) | Max Ex (nm, PBS pH 7.4) ([1]; excitation maximum, PBS pH 7.4) | Max Ex (nm, Seronorm) ([1]; excitation maximum, Seronorm control serum) | Kd [2] | in vivo TBR (mean ± SD) [3] | Organ-to-muscle ratio, intestine (mean ± SD) [4] | Organ-to-muscle ratio, kidney (mean ± SD) [4] | Organ-to-muscle ratio, liver (mean ± SD) [4] | Organ-to-muscle ratio, skin (mean ± SD) [4] | Organ-to-muscle ratio, spleen (mean ± SD) [4] | Organ-to-muscle ratio, stomach (mean ± SD) [4] | ex vivo TBR (mean ± SD), HT-29 tumor [4] | molar extinction coefficient (ε) [5] | Kd [6] | Kd [7] | time after injection to reach tumor/blood ratios suitable for imaging [8]
CC1(C)C(/C=C/C2=C(Oc3ccc(CCC(=O)NCCCCCCCC(=O)Nc4nnc(S(N)(=O)=O)s4)cc3)C(=C/C=C3/N(CCCCS(=O)(=O)O)c4ccc(S(=O)(=O)O)cc4C3(C)C)/CCC2)=[N+](CCCCS(=O)(=O)[O-])c2ccc(S(=O)(=O)O)cc21 [Reference 1] | 798 nm | 808 nm | 772 nm | 792 nm | 6400 nM | 1.8 ± 0.3 | 2.2 ± 1.3 | 2.4 ± 0.3 | 5.7 ± 0.2 | 1.4 ± 0.0 | 1.4 ± 0.3 | 4.0 ± 1.7 | 3.1 ± 0.3 | 255000 M⁻¹ cm⁻¹ | – | – | –
CC(=O)NC(CCCCn1cc(CCCC(=O)Nc2nnc(S(N)(=O)=O)s2)nn1)C(=O)NCCOCCOCCNC(=O)CCCCCN1/C(=C/C=C2\CCCC(/C=C/C3=[N+](CCCCS(=O)(=O)[O-])c4ccc(C(=O)NC[C@H](O)[C@@H](O)[C@H](O)[C@H](O)CO)cc4C3(C)C)=C2Oc2ccc(S(=O)(=O)O)cc2)C(C)(C)c2cc(C(=O)NC[C@H](O)[C@@H](O)[C@H](O)[C@H](O)CO)ccc21 (stereo partly shown) [Reference 2] | – | – | – | – | 69900 nM | 3.4 ± 0.6 | 3.0 ± 0.3 | 19.7 ± 2.2 | 6.2 ± 1.3 | 1.7 ± 0.4 | 1.7 ± 0.4 | 6.1 ± 0.7 | 9.2 ± 3.3 | – | 349 ± 49 nM | 55.8 ± 1.1 nM | –
CC(=O)NC(CCCCn1cc(CCCC(=O)Nc2nnc(S(N)(=O)=O)s2)nn1)C(=O)NCCOCCOCCNC(=O)CCCCCN1/C(=C/C=C/C=C/C=C/C2=[N+](CCC(C)S(=O)(=O)[O-])c3ccc(C(=O)NC[C@H](O)[C@@H](O)[C@H](O)[C@H](O)CO)cc3C2(C)C)C(C)(C)c2cc(C(=O)NC[C@H](O)[C@@H](O)[C@H](O)[C@H](O)CO)ccc21 (stereo partly shown) [Reference 3] | – | – | – | – | 24000 nM | 4.7 ± 0.6 | 2.7 ± 0.9 | 15.8 ± 3.4 | 3.6 ± 1.0 | 2.0 ± 0.5 | 1.2 ± 0.3 | 6.7 ± 1.4 | 14.7 ± 2.3 | – | 251 ± 44 nM | 30.2 ± 1 nM | –
^124I-cG250: chimeric version of monoclonal antibody G250 labeled with radionuclide 124I | – | – | – | – | – | – | – | – | – | – | – | – | – | – | – | – | 2 to 7 days
